In patent US6960574B2, “Antagonists of RF-amide neuropeptides” (University of Florida, priority 2002, dated 2005):
Square brackets hold non-standard residues; d marks the D form. Peptide text beside a SMILES is read from it. * marks the point of attachment. ξ: configuration not given here. Dansyl = CN(C)c1cccc2c(S(=O)(=O)*)cccc12; ξL = CC(C)CC(N)C(=O)O

System: receptor labeled by the radioiodinated analogue of 1 (4, [125I]-YLFQPQRF-NH2); neuropeptide FF receptor
Test: Competitive radioligand binding against 4 ([125I]Y8F-amide)
Conditions: mixture-based positional scanning; difference from averaged radioligand displacement of whole library (0); about 80 a.u. = 10-fold change in Ki

First: CN(C)c1cccc2c(S(=O)(=O)N[C@@H](CC(N)=O)C(=O)N[C@@H](CCCCN)C(=O)N[C@@H](CCCNC(=N)N)C(N)=O)cccc12 [Dansyl-NKR-amide] (Dansyl-Asn-Lys-Arg-NH2)
Second: CN(C)c1cccc2c(S(=O)(=O)N[C@@H](CCC(N)=O)C(=O)N[C@@H](CCCCN)C(=O)N[C@@H](CCCNC(=N)N)C(N)=O)cccc12 [Dansyl-QKR-amide] (Dansyl-Gln-Lys-Arg-NH2)
The “Relative Binding Index (RBI)” value of the first is lower: 10 a.u for the first, 19 a.u for the second.

First: CC(C)CC(NC(=O)[C@H](CC(N)=O)NS(=O)(=O)c1cccc2c(N(C)C)cccc12)C(=O)N[C@@H](CCCNC(=N)N)C(N)=O (some centres unmarked) [Dansyl-NLR-amide] (Dansyl-Asn-[ξL]-Arg-NH2)
Second: CC(C)C[C@H](NC(=O)[C@H](CCC(N)=O)NS(=O)(=O)c1cccc2c(N(C)C)cccc12)C(=O)N[C@@H](CCCNC(=N)N)C(N)=O [Dansyl-QLR-amide] (Dansyl-Gln-Leu-Arg-NH2)
The “Relative Binding Index (RBI)” value of the first is lower: 4 a.u for the first, 13 a.u for the second.

Going from `CSCC[C@H](NC(=O)[C@H](CC(N)=O)NS(=O)(=O)c1cccc2c(N(C)C)cccc12)C(=O)N[C@@H](CCCNC(=N)N)C(N)=O` [Dansyl-NMR-amide] (Dansyl-Asn-Met-Arg-NH2) to `CSCC[C@H](NC(=O)[C@H](CCC(N)=O)NS(=O)(=O)c1cccc2c(N(C)C)cccc12)C(=O)N[C@@H](CCCNC(=N)N)C(N)=O` [Dansyl-QMR-amide] (Dansyl-Gln-Met-Arg-NH2), the “Relative Binding Index (RBI)” value rises from 13 a.u to 21 a.u.

First: CN(C)c1cccc2c(S(=O)(=O)N[C@@H](CC(N)=O)C(=O)N[C@@H](CC(N)=O)C(=O)N[C@@H](CCCNC(=N)N)C(N)=O)cccc12 [Dansyl-NNR-amide] (Dansyl-Asn-Asn-Arg-NH2)
Second: CN(C)c1cccc2c(S(=O)(=O)N[C@@H](CC(N)=O)C(=O)N[C@@H](CCC(N)=O)C(=O)N[C@@H](CCCNC(=N)N)C(N)=O)cccc12 [Dansyl-NQR-amide] (Dansyl-Asn-Gln-Arg-NH2)
The “Relative Binding Index (RBI)” value of the first is lower: 14 a.u for the first, 26 a.u for the second.

First: CN(C)c1cccc2c(S(=O)(=O)N[C@@H](CC(N)=O)C(=O)N3CCC[C@H]3C(=O)N[C@@H](CCCNC(=N)N)C(N)=O)cccc12 [Dansyl-NPR-amide] (Dansyl-Asn-Pro-Arg-NH2)
Second: CN(C)c1cccc2c(S(=O)(=O)N[C@@H](CCC(N)=O)C(=O)N3CCC[C@H]3C(=O)N[C@@H](CCCNC(=N)N)C(N)=O)cccc12 [Dansyl-QPR-amide] (Dansyl-Gln-Pro-Arg-NH2)
The “Relative Binding Index (RBI)” value of the first is lower: 16 a.u for the first, 25 a.u for the second.

First: CN(C)c1cccc2c(S(=O)(=O)N[C@@H](CC(N)=O)C(=O)N[C@@H](CCCNC(=N)N)C(=O)N[C@@H](CCCNC(=N)N)C(N)=O)cccc12 [Dansyl-NRR-amide] (Dansyl-Asn-Arg-Arg-NH2)
Second: CN(C)c1cccc2c(S(=O)(=O)N[C@@H](CC(N)=O)C(=O)N[C@@H](CO)C(=O)N[C@@H](CCCNC(=N)N)C(N)=O)cccc12 [Dansyl-NSR-amide] (Dansyl-Asn-Ser-Arg-NH2)
The “Relative Binding Index (RBI)” value of the first is lower: 11 a.u for the first, 33 a.u for the second.

First: C[C@@H](O)[C@H](NC(=O)[C@H](CC(N)=O)NS(=O)(=O)c1cccc2c(N(C)C)cccc12)C(=O)N[C@@H](CCCNC(=N)N)C(N)=O [Dansyl-NTR-amide] (Dansyl-Asn-Thr-Arg-NH2)
Second: CC(C)[C@H](NC(=O)[C@H](CC(N)=O)NS(=O)(=O)c1cccc2c(N(C)C)cccc12)C(=O)N[C@@H](CCCNC(=N)N)C(N)=O [Dansyl-NVR-amide] (Dansyl-Asn-Val-Arg-NH2)
The “Relative Binding Index (RBI)” value of the first is higher: 18 a.u for the first, 8 a.u for the second.

Going from `CN(C)c1cccc2c(S(=O)(=O)N[C@@H](CC(N)=O)C(=O)N[C@@H](Cc3c[nH]c4ccccc34)C(=O)N[C@@H](CCCNC(=N)N)C(N)=O)cccc12` [Dansyl-NWR-amide] (Dansyl-Asn-Trp-Arg-NH2) to `CN(C)c1cccc2c(S(=O)(=O)N[C@@H](CC(N)=O)C(=O)N[C@@H](Cc3ccc(O)cc3)C(=O)N[C@@H](CCCNC(=N)N)C(N)=O)cccc12` [Dansyl-NYR-amide] (Dansyl-Asn-Tyr-Arg-NH2), the “Relative Binding Index (RBI)” value falls from 22 a.u to 12 a.u.

Compared with `C[C@H](NC(=O)[C@@H]1CCCN1S(=O)(=O)c1cccc2c(N(C)C)cccc12)C(=O)N[C@@H](CCCNC(=N)N)C(N)=O` [Dansyl-PAR-amide] (Dansyl-Pro-Ala-Arg-NH2), `C[C@@H](O)[C@H](NC(=O)[C@@H]1CCCN1S(=O)(=O)c1cccc2c(N(C)C)cccc12)C(=O)N[C@@H](CCCNC(=N)N)C(N)=O` [Dansyl-PTR-amide] (Dansyl-Pro-Thr-Arg-NH2) is higher in “Relative Binding Index (RBI)” value: −97 a.u for the first, −42 a.u for the second.

Compared with `CN(C)c1cccc2c(S(=O)(=O)N3CCC[C@H]3C(=O)N[C@@H](CC(=O)O)C(=O)N[C@@H](CCCNC(=N)N)C(N)=O)cccc12` [Dansyl-PDR-amide] (Dansyl-Pro-Asp-Arg-NH2), `CN(C)c1cccc2c(S(=O)(=O)N3CCC[C@H]3C(=O)N[C@@H](CCC(=O)O)C(=O)N[C@@H](CCCNC(=N)N)C(N)=O)cccc12` [Dansyl-PER-amide] (Dansyl-Pro-Glu-Arg-NH2) is higher in “Relative Binding Index (RBI)” value: −66 a.u for the first, −48 a.u for the second.

Going from `CN(C)c1cccc2c(S(=O)(=O)N3CCC[C@H]3C(=O)N[C@@H](Cc3ccccc3)C(=O)N[C@@H](CCCNC(=N)N)C(N)=O)cccc12` [Dansyl-PFR-amide] (Dansyl-Pro-Phe-Arg-NH2) to `CN(C)c1cccc2c(S(=O)(=O)N3CCC[C@H]3C(=O)N[C@@H](Cc3c[nH]c4ccccc34)C(=O)N[C@@H](CCCNC(=N)N)C(N)=O)cccc12` [Dansyl-PWR-amide] (Dansyl-Pro-Trp-Arg-NH2), the “Relative Binding Index (RBI)” value rises from −49 a.u to −39 a.u.

First: CN(C)c1cccc2c(S(=O)(=O)N3CCC[C@H]3C(=O)NCC(=O)N[C@@H](CCCNC(=N)N)C(N)=O)cccc12 [Dansyl-PGR-amide] (Dansyl-Pro-Gly-Arg-NH2)
Second: CN(C)c1cccc2c(S(=O)(=O)N3CCC[C@H]3C(=O)N[C@@H](CO)C(=O)N[C@@H](CCCNC(=N)N)C(N)=O)cccc12 [Dansyl-PSR-amide] (Dansyl-Pro-Ser-Arg-NH2)
The “Relative Binding Index (RBI)” value of the first is lower: −43 a.u for the first, −27 a.u for the second.

Compared with `CN(C)c1cccc2c(S(=O)(=O)N3CCC[C@H]3C(=O)N[C@@H](Cc3cnc[nH]3)C(=O)N[C@@H](CCCNC(=N)N)C(N)=O)cccc12` [Dansyl-PHR-amide] (Dansyl-Pro-His-Arg-NH2), `CSCC[C@H](NC(=O)[C@@H]1CCCN1S(=O)(=O)c1cccc2c(N(C)C)cccc12)C(=O)N[C@@H](CCCNC(=N)N)C(N)=O` [Dansyl-PMR-amide] (Dansyl-Pro-Met-Arg-NH2) is higher in “Relative Binding Index (RBI)” value: −54 a.u for the first, −48 a.u for the second.

Going from `CC[C@H](C)[C@H](NC(=O)[C@@H]1CCCN1S(=O)(=O)c1cccc2c(N(C)C)cccc12)C(=O)N[C@@H](CCCNC(=N)N)C(N)=O` [Dansyl-PIR-amide] (Dansyl-Pro-Ile-Arg-NH2) to `CC(C)[C@H](NC(=O)[C@@H]1CCCN1S(=O)(=O)c1cccc2c(N(C)C)cccc12)C(=O)N[C@@H](CCCNC(=N)N)C(N)=O` [Dansyl-PVR-amide] (Dansyl-Pro-Val-Arg-NH2), the “Relative Binding Index (RBI)” value falls from −41 a.u to −53 a.u.

Going from `CN(C)c1cccc2c(S(=O)(=O)N3CCC[C@H]3C(=O)N[C@@H](CCCCN)C(=O)N[C@@H](CCCNC(=N)N)C(N)=O)cccc12` [Dansyl-PKR-amide] (Dansyl-Pro-Lys-Arg-NH2) to `CN(C)c1cccc2c(S(=O)(=O)N3CCC[C@H]3C(=O)N[C@@H](CCCNC(=N)N)C(=O)N[C@@H](CCCNC(=N)N)C(N)=O)cccc12` [Dansyl-PRR-amide], the “Relative Binding Index (RBI)” value rises from −50 a.u to −49 a.u.

Going from `CC(C)C[C@H](NC(=O)[C@@H]1CCCN1S(=O)(=O)c1cccc2c(N(C)C)cccc12)C(=O)N[C@@H](CCCNC(=N)N)C(N)=O` [Dansyl-PLR-amide] (Dansyl-Pro-Leu-Arg-NH2) to `CN(C)c1cccc2c(S(=O)(=O)N3CCC[C@H]3C(=O)N[C@@H](CC(N)=O)C(=O)N[C@@H](CCCNC(=N)N)C(N)=O)cccc12` [Dansyl-PNR-amide] (Dansyl-Pro-Asn-Arg-NH2), the “Relative Binding Index (RBI)” value rises from −56 a.u to −47 a.u.

Compared with `CN(C)c1cccc2c(S(=O)(=O)N3CCC[C@H]3C(=O)N3CCC[C@H]3C(=O)N[C@@H](CCCNC(=N)N)C(N)=O)cccc12` [Dansyl-PPR-amide] (Dansyl-Pro-Pro-Arg-NH2), `CN(C)c1cccc2c(S(=O)(=O)N[C@@H](CCC(N)=O)C(=O)NCC(=O)N[C@@H](CCCNC(=N)N)C(N)=O)cccc12` [Dansyl-QGR-amide] (Dansyl-Gln-Gly-Arg-NH2) is higher in “Relative Binding Index (RBI)” value: −45 a.u for the first, 27 a.u for the second.

First: C[C@H](NC(=O)[C@H](CCC(N)=O)NS(=O)(=O)c1cccc2c(N(C)C)cccc12)C(=O)N[C@@H](CCCNC(=N)N)C(N)=O [Dansyl-QAR-amide] (Dansyl-Gln-Ala-Arg-NH2)
Second: CC[C@H](C)[C@H](NC(=O)[C@H](CCC(N)=O)NS(=O)(=O)c1cccc2c(N(C)C)cccc12)C(=O)N[C@@H](CCCNC(=N)N)C(N)=O [Dansyl-QIR-amide] (Dansyl-Gln-Ile-Arg-NH2)
The “Relative Binding Index (RBI)” value of the first is lower: −28 a.u for the first, 28 a.u for the second.

Compared with `CN(C)c1cccc2c(S(=O)(=O)N[C@@H](CCC(N)=O)C(=O)N[C@@H](CC(=O)O)C(=O)N[C@@H](CCCNC(=N)N)C(N)=O)cccc12` [Dansyl-QDR-amide] (Dansyl-Gln-Asp-Arg-NH2), `CN(C)c1cccc2c(S(=O)(=O)N[C@@H](CCC(N)=O)C(=O)N[C@@H](CCC(=O)O)C(=O)N[C@@H](CCCNC(=N)N)C(N)=O)cccc12` [Dansyl-QER-amide] (Dansyl-Gln-Glu-Arg-NH2) is higher in “Relative Binding Index (RBI)” value: 3 a.u for the first, 22 a.u for the second.

Going from `CN(C)c1cccc2c(S(=O)(=O)N[C@@H](CCC(N)=O)C(=O)N[C@@H](Cc3ccccc3)C(=O)N[C@@H](CCCNC(=N)N)C(N)=O)cccc12` [Dansyl-QFR-amide] to `CN(C)c1cccc2c(S(=O)(=O)N[C@@H](CCC(N)=O)C(=O)N[C@@H](Cc3c[nH]cn3)C(=O)N[C@@H](CCCNC(=N)N)C(N)=O)cccc12` [Dansyl-QHR-amide] (Dansyl-Gln-His-Arg-NH2), the “Relative Binding Index (RBI)” value falls from 20 a.u to 16 a.u.

In the case of `CN(C)c1cccc2c(S(=O)(=O)N[C@@H](CCC(N)=O)C(=O)N[C@@H](CC(N)=O)C(=O)N[C@@H](CCCNC(=N)N)C(N)=O)cccc12` [Dansyl-QNR-amide] (Dansyl-Gln-Asn-Arg-NH2), the “Relative Binding Index (RBI)” value is reported as 23 a.u.
